From patent publication US9867809B2, “Encapsulated active ingredients for controlled enteric release” (Kemin Industries, Inc., priority 2015, dated 2018)

Assays:
[1] = tested on: male Cobb×Cobb 500 broiler chickens; experiment: Performance trial in broiler chickens; format: in vivo, chicken
From the text: A chicken, broiler performance trial was completed to understand if granules with different in-vitro dissolution rates would perform differently in an animal model. […] Therefore two different granules were made, one with a fast dissolution, and one with a slow dissolution. […] The experiment used 72 cages of 10 male Cobb×Cobb 500 broiler chickens. The treatments were replicated in eighteen blocks where the four treatments were randomized within each block. All the treatments contained equal amount of zinc and treatments B, C and D had same amount of butyric acid. The diet given in Tables 5 and 6 was supplemented with the treatments in Table 4. The starter diet was fed day 0 to 14 and the grower diet was fed day 14 to 28. All diets were fed as non-pelleted mash feed. Bird weights and feed consumption by cage were recorded on Days 0, 14, 21, 28.

[2] = Butyric acid in intestinal contents and excreta of broilers by gas chromatography; format: in vivo, chicken; details: day 28, birds fed the supplemented diet
Description: On days 14 and 28, after weighing, 4 birds per cage were harvested. From each of the harvested birds, a 1 inch section from the beginning of the ileum was cut off and flash frozen. The remaining intestinal tract was cut into 3 sections (upper, middle and cecal), the intestinal contents for each section were pooled by cage, and frozen in liquid nitrogen. A sample of excreta was collected by cage and frozen.
The samples of the feed and intestinal contents were analyzed for butyric acid by gas chromatography.

[3] = after 28 days, supplement in basal diet, 153 ppm zinc

Structure (SMILES)	Avg. Wt. ([1]; in vivo) [kg]	Feed Conversion ([1]; in vivo)	Feed Intake ([1]; in vivo)	butyric acid in the ileal contents [2]	Avg. Wt. [1, 3] [kg]	Feed Conversion [1, 3]	Feed Intake [1, 3]
O=S(=O)([O-])[O-].[Zn+2] [Zinc Sulfate Powder, Zinc Sulfate, reference compound]	1.010	1.620	10.93	–	–	–	–
CCCC(=O)[O-].CCCC(=O)[O-].[Zn+2] [ZBA Powder, zinc salt of butyric acid in a molar ratio of 1:2]	–	–	–	no detectible butyric acid	1.043	1.589	11.06
